Experimental data reported in PMC5428567, “Pentameric ligand-gated ion channels exhibit distinct transmembrane domain archetypes for folding/expression and function” (Scientific Reports, 2017).

Columns and labels:
[1] = biological target: T1, ELIC W223A (Dickeya chrysanthemi, UniProt P0C7B7, W223A); assay: TEVC cysteamine-induced current, ELIC W223A; assay type: cell-based; settings: Xenopus laevis oocytes; ±SD; n=8
T1 construct: expressed in transfected cells; host or cells: Xenopus laevis oocytes injected with cRNA
From the text: (§1) To examine how different physical interactions at the M4-M1/M3 interface in both GLIC and ELIC (Fig. 1) influence function, we mutated each residue to Ala, and characterized how each mutation influenced agonist-induced channel gating using two-electrode voltage clamp electrophysiology. Both GLIC and ELIC are cation-selective ion channels that transiently gate open in response to agonist binding, although GLIC responds to protons while ELIC responds to primary amines, such as cysteamine, [34].
(§2) Stage V–VI oocytes were collected as previously described, injected with cRNA, and allowed to incubate one to four days at 16 °C in ND96 + buffer (5 mM HEPES, 96 mM NaCl, 2 mM KCl, 1 mM MgCl2, 1 mM CaCl2, and 2 mM Pyruvate). Whole cell currents were recorded using a two-electrode voltage clamp apparatus (OC-725C oocyte clamp; Holliston, MA). For GLIC, whole cell currents were recorded from injected oocytes (3–20 ng cRNA) immersed in MES buffer (140 mM NaCl, 2.8 mM KCl, 2 mM MgCl2, and 10 mM MES). Currents through the plasma membrane in response to pH jumps (pH 7.3 down to the indicated pH values) were measured with the transmembrane voltage clamped at voltages between −20 mV and −40 mV depending on the level of expression, typically −20 mV. […]

[2] = biological target: T2, ELIC M264A (Dickeya chrysanthemi, UniProt P0C7B7, M264A); assay: TEVC cysteamine-induced current, ELIC M264A; assay type: cell-based; settings: Xenopus laevis oocytes; ±SD; n=8
T2 construct: expressed in transfected cells; host or cells: Xenopus laevis oocytes injected with cRNA
From the text: as §1, §2

[3] = tested on: ELIC I319A; set-up: method as in Henault et al.[9], [18], [29]; settings: Xenopus laevis oocytes; ±SD; n=11; ref Henault et al.[9], [18], [29]; cited from earlier work
[4] = biological target: T3, ELIC V260A (Dickeya chrysanthemi, UniProt P0C7B7, V260A); assay: TEVC cysteamine-induced current, ELIC V260A; assay type: cell-based; settings: Xenopus laevis oocytes; ±SD; n=8
T3 construct: expressed in transfected cells; host or cells: Xenopus laevis oocytes injected with cRNA
From the text: as §1, §2

[5] = biological target: T4, ELIC P304A (Dickeya chrysanthemi, UniProt P0C7B7, P304A); assay: TEVC cysteamine-induced current, ELIC P304A; assay type: cell-based; settings: Xenopus laevis oocytes; EC50 values were not obtained
T4 construct: expressed in transfected cells; host or cells: Xenopus laevis oocytes injected with cRNA (pTLN plasmid)
From the text: as §1, §2

[6] = biological target: T5, ELIC Q263A (Dickeya chrysanthemi, UniProt P0C7B7, Q263A); assay: TEVC cysteamine-induced current, ELIC Q263A; assay type: cell-based; settings: Xenopus laevis oocytes; ±SD; n=8
T5 construct: expressed in transfected cells; host or cells: Xenopus laevis oocytes injected with cRNA
From the text: as §1, §2

[7] = biological target: T6, ELIC F281A (Dickeya chrysanthemi, UniProt P0C7B7, F281A); assay: TEVC cysteamine-induced current, ELIC F281A; assay type: cell-based; settings: Xenopus laevis oocytes; ±SD; n=8
T6 construct: expressed in transfected cells; host or cells: Xenopus laevis oocytes injected with cRNA
From the text: as §1, §2

[8] = tested on: ELIC L314A; set-up: method as in Henault et al.[9], [18], [29]; settings: Xenopus laevis oocytes; ±SD; n=8; ref Henault et al.[9], [18], [29]; cited from earlier work
[9] = biological target: T7, ELIC F222A (Dickeya chrysanthemi, UniProt P0C7B7, F222A); assay: TEVC cysteamine-induced current, ELIC F222A; assay type: cell-based; settings: Xenopus laevis oocytes
T7 construct: expressed in transfected cells; host or cells: Xenopus laevis oocytes injected with cRNA
From the text: as §1
Stage V–VI oocytes were collected as previously described, injected with cRNA, and allowed to incubate one to four days at 16 °C in ND96 + buffer (5 mM HEPES, 96 mM NaCl, 2 mM KCl, 1 mM MgCl2, 1 mM CaCl2, and 2 mM Pyruvate). Whole cell currents were recorded using a two-electrode voltage clamp apparatus (OC-725C oocyte clamp; Holliston, MA). For GLIC, whole cell currents were recorded from injected oocytes (3–20 ng cRNA) immersed in MES buffer (140 mM NaCl, 2.8 mM KCl, 2 mM MgCl2, and 10 mM MES). Currents through the plasma membrane in response to pH jumps (pH 7.3 down to the indicated pH values) were measured with the transmembrane voltage clamped at voltages between −20 mV and −40 mV depending on the level of expression, typically −20 mV. For ELIC, whole cell currents were recorded from injected oocytes (0.1–10 ng cRNA) immersed in HEPES buffer (150 mM NaCl, 0.5 mM BaCl2, and 10 mM HEPES, pH 7.0). In most cases, currents through the plasma membrane in response to cysteamine concentration jumps (from 0 mM up to the indicated values) were measured with the transmembrane voltage clamped at −30 mV.
Dose responses for each mutant were acquired from at least two different batches of oocytes. Each individual dose-response experiment was fit with a variable slope sigmoidal dose-response and the individual EC50 values from each experiment averaged to give the reported EC50 values ± standard deviation.

[10] = biological target: T8, ELIC S271A + F303A (Dickeya chrysanthemi, UniProt P0C7B7, F303A/S271A); assay: TEVC cysteamine-induced current, ELIC S271A + F303A; assay type: cell-based; settings: Xenopus laevis oocytes; ±SD; n=8
T8 construct: expressed in transfected cells; host or cells: Xenopus laevis oocytes injected with cRNA (pTLN plasmid)
From the text: as §1, §2

[11] = biological target: T9, ELIC W219A + F307A (Dickeya chrysanthemi, UniProt P0C7B7, F307A/W219A); assay: TEVC cysteamine-induced current, ELIC W219A + F307A; assay type: cell-based; settings: Xenopus laevis oocytes; ±SD; n=8
T9 construct: expressed in transfected cells; host or cells: Xenopus laevis oocytes injected with cRNA (pTLN plasmid)
From the text: as §1, §2

[12] = biological target: T10, ELIC I208A (Dickeya chrysanthemi, UniProt P0C7B7, I208A); assay: TEVC cysteamine-induced current, ELIC I208A; assay type: cell-based; settings: Xenopus laevis oocytes; ±SD; n=8
T10 construct: expressed in transfected cells; host or cells: Xenopus laevis oocytes injected with cRNA
From the text: as §1, §2

[13] = biological target: T11, ELIC W223A + R300A (Dickeya chrysanthemi, UniProt P0C7B7, R300A/W223A); assay: TEVC cysteamine-induced current, ELIC W223A + R300A; assay type: cell-based; settings: Xenopus laevis oocytes; ±SD; n=8
T11 construct: expressed in transfected cells; host or cells: Xenopus laevis oocytes injected with cRNA (pTLN plasmid)
From the text: as §1, §2

[14] = tested on: ELIC C299A; set-up: method as in Henault et al.[9], [18], [29]; settings: Xenopus laevis oocytes; ±SD; n=9; ref Henault et al.[9], [18], [29]; cited from earlier work
[15] = biological target: T12, ELIC S271A (Dickeya chrysanthemi, UniProt P0C7B7, S271A); assay: TEVC cysteamine-induced current, ELIC S271A; assay type: cell-based; settings: Xenopus laevis oocytes; ±SD; n=8
T12 construct: expressed in transfected cells; host or cells: Xenopus laevis oocytes injected with cRNA
From the text: as §1, §2

[16] = biological target: T13, ELIC G268A (Dickeya chrysanthemi, UniProt P0C7B7, G268A); assay: TEVC cysteamine-induced current, ELIC G268A; assay type: cell-based; settings: Xenopus laevis oocytes; ±SD; n=8
T13 construct: expressed in transfected cells; host or cells: Xenopus laevis oocytes injected with cRNA (pTLN plasmid)
From the text: as §1, §2

[17] = biological target: T14, ELIC L204A (Dickeya chrysanthemi, UniProt P0C7B7, L204A); assay: TEVC cysteamine-induced current, ELIC L204A; assay type: cell-based; settings: Xenopus laevis oocytes; ±SD; n=8
T14 construct: expressed in transfected cells; host or cells: Xenopus laevis oocytes injected with cRNA
From the text: as §1, §2

[18] = tested on: ELIC L295A; set-up: method as in Henault et al.[9], [18], [29]; settings: Xenopus laevis oocytes; ±SD; n=8; ref Henault et al.[9], [18], [29]; cited from earlier work

T7 sequence (P0C7B7 whole entry F222A): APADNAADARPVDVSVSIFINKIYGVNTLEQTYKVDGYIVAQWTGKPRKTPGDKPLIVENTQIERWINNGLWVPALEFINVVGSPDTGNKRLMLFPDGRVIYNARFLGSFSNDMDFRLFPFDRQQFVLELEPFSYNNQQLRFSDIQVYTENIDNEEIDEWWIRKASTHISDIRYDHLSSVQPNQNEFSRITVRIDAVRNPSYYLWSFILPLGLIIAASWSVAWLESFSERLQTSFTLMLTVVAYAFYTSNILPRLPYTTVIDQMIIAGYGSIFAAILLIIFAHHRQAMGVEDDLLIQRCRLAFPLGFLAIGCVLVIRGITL
T3 sequence (P0C7B7 whole entry V260A): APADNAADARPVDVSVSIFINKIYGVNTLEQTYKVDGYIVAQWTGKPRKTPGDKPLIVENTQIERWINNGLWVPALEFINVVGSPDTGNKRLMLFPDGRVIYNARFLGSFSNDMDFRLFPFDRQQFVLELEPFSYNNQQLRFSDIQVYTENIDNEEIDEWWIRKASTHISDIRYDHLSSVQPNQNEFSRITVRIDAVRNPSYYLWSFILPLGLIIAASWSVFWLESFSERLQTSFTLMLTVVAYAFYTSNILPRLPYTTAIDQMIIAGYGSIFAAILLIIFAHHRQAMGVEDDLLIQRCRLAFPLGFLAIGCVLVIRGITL
T12 sequence (P0C7B7 whole entry S271A): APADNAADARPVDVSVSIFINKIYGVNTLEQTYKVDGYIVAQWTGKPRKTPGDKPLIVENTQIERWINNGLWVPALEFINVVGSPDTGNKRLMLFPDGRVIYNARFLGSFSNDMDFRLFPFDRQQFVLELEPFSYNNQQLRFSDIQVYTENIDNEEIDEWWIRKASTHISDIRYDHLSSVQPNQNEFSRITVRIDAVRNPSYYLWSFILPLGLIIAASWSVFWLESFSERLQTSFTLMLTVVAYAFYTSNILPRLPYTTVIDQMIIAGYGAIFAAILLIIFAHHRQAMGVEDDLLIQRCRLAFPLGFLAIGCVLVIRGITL
T14 sequence (P0C7B7 whole entry L204A): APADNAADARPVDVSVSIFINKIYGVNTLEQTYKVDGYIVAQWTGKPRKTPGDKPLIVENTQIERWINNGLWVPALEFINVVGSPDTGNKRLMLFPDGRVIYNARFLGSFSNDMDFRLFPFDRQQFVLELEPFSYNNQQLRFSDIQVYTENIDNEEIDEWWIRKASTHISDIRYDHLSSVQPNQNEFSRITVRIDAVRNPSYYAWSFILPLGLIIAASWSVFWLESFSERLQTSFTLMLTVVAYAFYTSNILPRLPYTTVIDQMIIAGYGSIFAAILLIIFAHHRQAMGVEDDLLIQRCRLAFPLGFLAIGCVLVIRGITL
T1 sequence (P0C7B7 whole entry W223A): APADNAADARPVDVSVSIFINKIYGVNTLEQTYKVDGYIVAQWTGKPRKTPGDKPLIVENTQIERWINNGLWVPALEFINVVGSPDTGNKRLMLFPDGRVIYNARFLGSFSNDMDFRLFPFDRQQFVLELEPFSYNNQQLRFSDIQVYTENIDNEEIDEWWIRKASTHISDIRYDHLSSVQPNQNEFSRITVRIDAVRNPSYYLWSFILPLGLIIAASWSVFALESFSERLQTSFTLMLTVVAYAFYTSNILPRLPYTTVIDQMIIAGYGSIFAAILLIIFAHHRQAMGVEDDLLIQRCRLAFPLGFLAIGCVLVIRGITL
T5 sequence (P0C7B7 whole entry Q263A): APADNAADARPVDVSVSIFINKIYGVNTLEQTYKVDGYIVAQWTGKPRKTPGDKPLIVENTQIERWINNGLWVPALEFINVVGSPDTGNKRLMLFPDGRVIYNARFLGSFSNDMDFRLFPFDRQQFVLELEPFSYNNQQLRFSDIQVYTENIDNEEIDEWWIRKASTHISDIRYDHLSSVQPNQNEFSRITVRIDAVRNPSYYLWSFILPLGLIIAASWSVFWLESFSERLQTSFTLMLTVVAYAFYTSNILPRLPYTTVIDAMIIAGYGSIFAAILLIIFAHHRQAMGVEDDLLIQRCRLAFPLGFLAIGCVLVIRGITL
T2 sequence (P0C7B7 whole entry M264A): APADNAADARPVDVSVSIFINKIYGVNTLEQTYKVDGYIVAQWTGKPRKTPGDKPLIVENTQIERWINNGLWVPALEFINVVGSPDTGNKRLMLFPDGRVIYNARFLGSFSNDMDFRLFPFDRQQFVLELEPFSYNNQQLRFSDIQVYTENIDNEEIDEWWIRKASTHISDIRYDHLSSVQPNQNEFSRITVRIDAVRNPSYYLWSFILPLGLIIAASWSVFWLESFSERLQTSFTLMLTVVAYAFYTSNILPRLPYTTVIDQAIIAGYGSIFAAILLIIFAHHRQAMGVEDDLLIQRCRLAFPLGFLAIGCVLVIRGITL
T9 sequence (P0C7B7 whole entry W219A/F307A): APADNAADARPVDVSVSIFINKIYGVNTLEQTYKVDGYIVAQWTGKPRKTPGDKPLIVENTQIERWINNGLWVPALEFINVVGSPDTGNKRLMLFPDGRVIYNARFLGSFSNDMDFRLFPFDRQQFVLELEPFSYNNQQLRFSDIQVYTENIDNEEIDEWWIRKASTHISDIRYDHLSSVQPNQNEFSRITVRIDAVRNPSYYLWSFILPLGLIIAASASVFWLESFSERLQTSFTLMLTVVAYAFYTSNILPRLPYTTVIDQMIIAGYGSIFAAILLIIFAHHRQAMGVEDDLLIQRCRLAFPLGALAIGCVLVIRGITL
T8 sequence (P0C7B7 whole entry S271A/F303A): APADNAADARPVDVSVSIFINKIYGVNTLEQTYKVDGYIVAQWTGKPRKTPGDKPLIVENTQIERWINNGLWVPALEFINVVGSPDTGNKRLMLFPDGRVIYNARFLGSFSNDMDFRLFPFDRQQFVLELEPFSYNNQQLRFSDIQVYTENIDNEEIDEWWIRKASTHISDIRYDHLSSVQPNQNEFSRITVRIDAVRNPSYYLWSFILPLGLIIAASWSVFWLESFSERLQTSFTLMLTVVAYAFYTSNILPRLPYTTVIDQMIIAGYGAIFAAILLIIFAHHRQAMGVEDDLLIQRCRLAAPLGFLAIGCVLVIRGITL
T6 sequence (P0C7B7 whole entry F281A): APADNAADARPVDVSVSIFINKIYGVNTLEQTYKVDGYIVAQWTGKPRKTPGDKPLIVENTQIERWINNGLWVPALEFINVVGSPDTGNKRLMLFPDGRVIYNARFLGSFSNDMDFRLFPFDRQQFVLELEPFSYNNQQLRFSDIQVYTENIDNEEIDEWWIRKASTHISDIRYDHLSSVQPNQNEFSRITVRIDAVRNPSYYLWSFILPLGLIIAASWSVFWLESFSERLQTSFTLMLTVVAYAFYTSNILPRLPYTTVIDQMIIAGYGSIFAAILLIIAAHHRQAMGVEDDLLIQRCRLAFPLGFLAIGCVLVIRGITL
T11 sequence (P0C7B7 whole entry W223A/R300A): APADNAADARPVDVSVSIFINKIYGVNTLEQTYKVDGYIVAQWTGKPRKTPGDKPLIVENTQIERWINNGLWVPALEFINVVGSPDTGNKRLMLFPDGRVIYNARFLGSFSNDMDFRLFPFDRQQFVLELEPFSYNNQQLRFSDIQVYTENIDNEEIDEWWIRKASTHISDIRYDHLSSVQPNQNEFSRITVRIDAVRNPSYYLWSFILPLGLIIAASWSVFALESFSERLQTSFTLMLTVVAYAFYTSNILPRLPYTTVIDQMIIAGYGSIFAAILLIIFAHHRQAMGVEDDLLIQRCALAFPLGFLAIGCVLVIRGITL
T13 sequence (P0C7B7 whole entry G268A): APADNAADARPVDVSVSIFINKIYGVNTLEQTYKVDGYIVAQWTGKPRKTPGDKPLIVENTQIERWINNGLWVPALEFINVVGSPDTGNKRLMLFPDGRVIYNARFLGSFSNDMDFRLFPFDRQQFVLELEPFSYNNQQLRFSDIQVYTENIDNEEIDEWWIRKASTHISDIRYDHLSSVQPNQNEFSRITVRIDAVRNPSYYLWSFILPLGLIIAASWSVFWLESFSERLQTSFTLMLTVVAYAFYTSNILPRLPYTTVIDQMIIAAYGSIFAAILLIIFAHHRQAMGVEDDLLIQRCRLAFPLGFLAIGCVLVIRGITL
T10 sequence (P0C7B7 whole entry I208A): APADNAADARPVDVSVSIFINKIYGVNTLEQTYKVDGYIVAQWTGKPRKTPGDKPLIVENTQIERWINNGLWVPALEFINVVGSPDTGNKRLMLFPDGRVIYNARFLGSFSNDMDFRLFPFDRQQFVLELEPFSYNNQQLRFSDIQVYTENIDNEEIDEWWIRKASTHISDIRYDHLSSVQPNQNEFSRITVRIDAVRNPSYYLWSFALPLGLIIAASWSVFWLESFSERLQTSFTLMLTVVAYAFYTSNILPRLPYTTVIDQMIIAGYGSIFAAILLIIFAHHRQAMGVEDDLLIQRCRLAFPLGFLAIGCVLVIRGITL
T4 sequence (P0C7B7 whole entry P304A): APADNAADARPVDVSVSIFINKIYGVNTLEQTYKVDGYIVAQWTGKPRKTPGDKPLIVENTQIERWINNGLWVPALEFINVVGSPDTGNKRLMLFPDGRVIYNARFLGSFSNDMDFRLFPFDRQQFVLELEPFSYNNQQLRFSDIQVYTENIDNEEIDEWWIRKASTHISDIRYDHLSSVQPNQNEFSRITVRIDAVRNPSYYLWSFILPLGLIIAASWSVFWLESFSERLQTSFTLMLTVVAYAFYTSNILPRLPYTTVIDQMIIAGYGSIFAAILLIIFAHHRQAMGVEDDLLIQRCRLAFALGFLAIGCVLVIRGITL

NCCS [cysteamine]
EC50 [1]: 1230 ± 60 µM
−logEC50 [1]: 2.91 ± 0.02
EC50 [2]: 1290 ± 120 µM
−logEC50 [2]: 2.89 ± 0.04
EC50 [3]: 860 ± 160 µM
−logEC50 [3]: 3.06 ± 0.08
EC50 [4]: 460 ± 50 µM
−logEC50 [4]: 3.34 ± 0.05
desensitization kinetics [5]: substantially altered desensitization kinetics
EC50 [6]: 580 ± 40 µM
−logEC50 [6]: 3.24 ± 0.03
EC50 [7]: 880 ± 50 µM
−logEC50 [7]: 3.06 ± 0.02
EC50 [8]: 420 ± 50 µM
−logEC50 [8]: 3.38 ± 0.05
gain-of-function relative to WT ELIC ([9]; shift versus WT): 10 fold
EC50 ([9]; ±SD, n=8): 90 ± 30 µM
−logEC50 ([9]; ±SD, n=8): 4.05 ± 0.15
EC50 [10]: 620 ± 130 µM
−logEC50 [10]: 3.21 ± 0.09
EC50 [11]: 450 ± 70 µM
−logEC50 [11]: 3.35 ± 0.07
EC50 [12]: 250 ± 50 µM
−logEC50 [12]: 3.60 ± 0.09
EC50 [13]: 800 ± 110 µM
−logEC50 [13]: 3.10 ± 0.05
EC50 [14]: 560 ± 80 µM
−logEC50 [14]: 3.25 ± 0.06
EC50 [15]: 820 ± 50 µM
−logEC50 [15]: 3.09 ± 0.03
EC50 [16]: 1190 ± 140 µM
−logEC50 [16]: 2.92 ± 0.05
EC50 [17]: 3550 ± 310 µM
−logEC50 [17]: 2.45 ± 0.04
EC50 [18]: 500 ± 100 µM
